Laboratory results taken from ChEMBL document CHEMBL4834472 (J Med Chem, 2021).
Active and inactive are the calls of the source. The rule behind the calls is not given here.

How the values were obtained:
CDK2/Cyclin A1 = CDK2/Cyclin A1 (Homo sapiens, UniProt P24941); format: protein-complex assay
Description: Inhibition of CDK2/Cyclin A1 (unknown origin) at 1 uM using histone H1 as substrate preincubated for 20 mins followed by 33P-ATP addition and measured after 2 hrs by filter binding method

[1] = target: Receptor-type tyrosine-protein kinase FLT3 (Homo sapiens, UniProt P36888, ITD)
[2] = target: Cyclin-dependent kinase 1/cyclin B1 (Homo sapiens, UniProt P06493); assay: Inhibition of CDK1/cyclin B1 (unknown origin) in presence of [32P]gammaATP by image analyser; format: protein-complex assay
[3] = target: Cyclin-dependent kinase 2/cyclin E1 (Homo sapiens, UniProt P24941); assay: Inhibition of CDK2/cyclin E1 (unknown origin) in presence of [32P]gammaATP by image analyser; format: protein-complex assay
CDK2/Cyclin A2 = CDK2/Cyclin A2 (Homo sapiens, UniProt P24941); assay: Inhibition of CDK2/cyclin A2 (unknown origin) in presence of [32P]gammaATP by image analyser; format: protein-complex assay
[4] = target: Cyclin-dependent kinase 4/cyclin D1 (Homo sapiens, UniProt P11802); assay: Inhibition of CDK4/cyclin D1 (unknown origin) in presence of [32P]gammaATP by image analyser; format: protein-complex assay
CDK9/cyclin T1 = CDK9/cyclin T1 (Homo sapiens, UniProt P50750); assay: Inhibition of CDK9/cyclin T1 (unknown origin) in presence of [32P]gammaATP by image analyser; format: protein-complex assay
[5] = target: T1, Receptor-type tyrosine-protein kinase FLT3 (Homo sapiens, UniProt P36888); assay: Inhibition of wild type FLT3 (unknown origin) using AGLT peptide substrate in presence of [32P]gammaATP by image analyser
T1 sequence (P36888 whole entry): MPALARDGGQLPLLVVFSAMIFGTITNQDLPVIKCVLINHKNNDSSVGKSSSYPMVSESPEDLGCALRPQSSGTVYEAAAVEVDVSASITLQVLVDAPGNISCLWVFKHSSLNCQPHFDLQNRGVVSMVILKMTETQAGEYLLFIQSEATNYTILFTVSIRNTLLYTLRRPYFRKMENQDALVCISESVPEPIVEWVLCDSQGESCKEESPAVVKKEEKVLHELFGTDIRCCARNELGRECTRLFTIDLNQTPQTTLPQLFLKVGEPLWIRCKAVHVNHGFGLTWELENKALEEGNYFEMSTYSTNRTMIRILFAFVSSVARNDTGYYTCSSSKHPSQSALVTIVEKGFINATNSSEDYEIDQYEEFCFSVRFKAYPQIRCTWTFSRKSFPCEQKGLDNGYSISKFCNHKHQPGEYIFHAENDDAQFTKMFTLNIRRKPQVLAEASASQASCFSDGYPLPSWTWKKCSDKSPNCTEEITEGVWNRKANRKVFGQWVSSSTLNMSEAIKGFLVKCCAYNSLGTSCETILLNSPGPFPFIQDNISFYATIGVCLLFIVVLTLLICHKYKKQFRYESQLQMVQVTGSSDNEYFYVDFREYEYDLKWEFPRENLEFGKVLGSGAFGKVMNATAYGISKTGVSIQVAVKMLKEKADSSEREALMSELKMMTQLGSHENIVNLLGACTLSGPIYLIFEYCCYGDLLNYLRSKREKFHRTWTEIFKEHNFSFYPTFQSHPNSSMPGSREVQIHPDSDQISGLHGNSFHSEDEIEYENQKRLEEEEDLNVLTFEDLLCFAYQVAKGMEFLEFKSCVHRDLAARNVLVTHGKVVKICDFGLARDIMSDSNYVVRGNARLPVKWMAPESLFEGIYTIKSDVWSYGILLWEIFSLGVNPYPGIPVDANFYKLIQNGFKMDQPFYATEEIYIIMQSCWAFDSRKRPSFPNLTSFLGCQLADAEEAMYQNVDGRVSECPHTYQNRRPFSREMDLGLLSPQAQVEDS

MOLM-13 = assay: Antiproliferative activity against human MOLM-13 cells assessed as cell death measured after 72 hrs by resazurin dye based assay; format: functional; conditions: MOLM-13, 72 h
MOLM-14 [6] = assay: Antiproliferative activity against human MOLM-14 cells assessed as cell death measured after 72 hrs by resazurin dye based assay; format: functional; conditions: MOLM-14, 72 h
MOLM-14 [7] = assay: Antiproliferative activity against human MOLM-14 cells harboring D835Y mutant assessed as cell death measured after 72 hrs by resazurin dye based assay; format: functional; conditions: MOLM-14, 72 h
MOLM-14 [8] = assay: Antiproliferative activity against human MOLM-14 cells harboring F691L mutant assessed as cell death measured after 72 hrs by resazurin dye based assay; format: functional; conditions: MOLM-14, 72 h
SEM cells = assay: Antiproliferative activity against human SEM cells assessed as cell death measured after 72 hrs by resazurin dye based assay; format: functional
CCRF-CEM = assay: Antiproliferative activity against human CCRF-CEM cells assessed as cell death measured after 72 hrs by resazurin dye based assay; format: functional
THP-1 = assay: Antiproliferative activity against human THP-1 cells assessed as cell death measured after 72 hrs by resazurin dye based assay; format: functional; conditions: THP-1, 72 h
U-937 = assay: Antiproliferative activity against human U-937 cells assessed as cell death measured after 72 hrs by resazurin dye based assay; format: functional; conditions: U-937, 72 h
BaF3 [9] = assay: Antiproliferative activity against mouse BaF3 cells assessed as cell death measured after 72 hrs by resazurin dye based assay; format: functional; conditions: BaF3, 72 h
BaF3 [10] = assay: Antiproliferative activity against mouse BaF3 cells harboring FLt3 ITD mutant assessed as cell death measured after 72 hrs by resazurin dye based assay; format: functional; conditions: BaF3, 72 h
[11] = target: Receptor-type tyrosine-protein kinase FLT3 (Homo sapiens) (UniProt P36888); assay: Inhibition of FLT3 autophosphorylation in human MV4-11 cells at 20 to 100 nM incubated for 1 hrs by Western blot analysis; format: cell-based; conditions: dose 20-100 nM
[12] = target: Receptor-type tyrosine-protein kinase FLT3 (Homo sapiens) (UniProt P36888); assay: Inhibition of FLT3 in human MV4-11 cells assessed as STAT5 phosphorylation at Y694 at 20 to 100 nM incubated for 1 hrs by Western blot analysis; format: cell-based; conditions: dose 20-100 nM
[13] = target: Receptor-type tyrosine-protein kinase FLT3 (Homo sapiens) (UniProt P36888); assay: Inhibition of FLT3 in human MV4-11 cells assessed as ERK1/2 phosphorylation at 20 to 100 nM incubated for 1 hrs by Western blot analysis; format: cell-based; conditions: dose 20-100 nM
MV4-11 [14] = assay: Induction of apoptosis in human MV4-11 cells assessed as caspase 3 activation using fluorescent substrate Ac-DEVD-AMC at 100 nM incubated for 24 hrs by Western blot analysis; format: functional, cell-based
MV4-11 [15] = assay: Induction of apoptosis in human MV4-11 cells assessed as caspase 7 activation using fluorescent substrate Ac-DEVD-AMC at 100 nM incubated for 24 hrs by Western blot analysis; format: functional, cell-based
MV4-11 [16] = assay: Induction of apoptosis in human MV4-11 cells assessed as increase in cleaved PARP1 level at 100 nM incubated for 24 hrs by Western blot analysis; format: functional, cell-based
MV4-11 [17] = assay: Induction of apoptosis in human MV4-11 cells assessed as decrease in MCL1 level at 100 nM incubated for 24 hrs by Western blot analysis; format: functional, cell-based
MV4-11 [18] = assay: Induction of apoptosis in human MV4-11 cells assessed as effect on Bcl2 level at 100 nM incubated for 24 hrs by Western blot analysis; format: functional, cell-based
K562 = assay: cells; conditions: Homo sapiens, K562, 72 h
Description: Antiproliferative activity against human K562 cells assessed as cell death measured after 72 hrs by resazurin dye based assay

MV4-11 [19] = assay: cells; conditions: Homo sapiens, MV4-11, 72 h
Description: Antiproliferative activity against human MV4-11 cells assessed as cell death measured after 72 hrs by resazurin dye based assay

[20] = system: Receptor-type tyrosine-protein kinase FLT3 (Homo sapiens), P36888 [D835Y]; assay: Inhibition of FLT3 D835Y (unknown origin) assessed as residual activity at 500 nM
[21] = system: Receptor-type tyrosine-protein kinase FLT3 (Homo sapiens), P36888 [UNDEFINED MUTATION]; assay: Inhibition of FLT3 ITD (unknown origin) assessed as residual activity at 500 nM
[22] = target: Leucine-rich repeat serine/threonine-protein kinase 2 (Homo sapiens) (UniProt Q5S007); assay: Inhibition of LRRK2 (unknown origin) assessed as residual activity at 500 nM
[23] = target: Maternal embryonic leucine zipper kinase (Homo sapiens) (UniProt Q14680); assay: Inhibition of MELK (unknown origin) assessed as residual activity at 500 nM
[24] = target: Dual specificity tyrosine-phosphorylation-regulated kinase 1B (Homo sapiens) (UniProt Q9Y463); assay: Inhibition of DYRK1B (unknown origin) assessed as residual activity at 500 nM
[25] = target: Dual specificity protein kinase CLK1 (Homo sapiens) (UniProt P49759); assay: Inhibition of CLK1 (unknown origin) assessed as residual activity at 500 nM
[26] = target: NT-3 growth factor receptor (Homo sapiens) (UniProt Q16288); assay: Inhibition of TRKC (unknown origin) assessed as residual activity at 500 nM
[27] = target: MAP kinase-interacting serine/threonine-protein kinase 2 (Homo sapiens) (UniProt Q9HBH9); assay: Inhibition of MNK2 (unknown origin) assessed as residual activity at 500 nM
[28] = target: Lymphokine-activated killer T-cell-originated protein kinase (Homo sapiens) (UniProt Q96KB5); assay: Inhibition of TOPK (unknown origin) assessed as residual activity at 500 nM
[29] = target: Rho-associated protein kinase 2 (Homo sapiens) (UniProt O75116); assay: Inhibition of ROCK2 (unknown origin) assessed as residual activity at 500 nM
[30] = target: Ribosomal protein S6 kinase alpha-4 (Homo sapiens) (UniProt O75676); assay: Inhibition of MSK2 (unknown origin) assessed as residual activity at 500 nM
[31] = target: Ribosomal protein S6 kinase beta-1 (Homo sapiens) (UniProt P23443); assay: Inhibition of p70S6K (unknown origin) assessed as residual activity at 500 nM
[32] = target: cGMP-dependent protein kinase 1 (Homo sapiens) (UniProt Q13976); assay: Inhibition of PKG1alpha (unknown origin) assessed as residual activity at 500 nM
[33] = target: CDK2/Cyclin A1 (Homo sapiens) (UniProt P24941+P78396); assay: Inhibition of CDK2/cyclin A1 (unknown origin) assessed as residual activity at 500 nM; format: protein-complex assay

Sequence of Cyclin-dependent kinase 4/cyclin D1 (P11802 whole entry): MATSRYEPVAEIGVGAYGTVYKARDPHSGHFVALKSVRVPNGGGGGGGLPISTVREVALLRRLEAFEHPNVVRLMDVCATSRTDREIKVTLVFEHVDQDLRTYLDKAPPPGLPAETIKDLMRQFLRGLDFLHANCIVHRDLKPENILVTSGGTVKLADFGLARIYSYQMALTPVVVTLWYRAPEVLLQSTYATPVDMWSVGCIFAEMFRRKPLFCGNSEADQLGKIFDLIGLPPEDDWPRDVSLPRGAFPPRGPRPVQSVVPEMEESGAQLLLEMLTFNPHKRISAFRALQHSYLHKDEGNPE
Sequence of Cyclin-dependent kinase 4/cyclin D1 (P24385 whole entry, further chain): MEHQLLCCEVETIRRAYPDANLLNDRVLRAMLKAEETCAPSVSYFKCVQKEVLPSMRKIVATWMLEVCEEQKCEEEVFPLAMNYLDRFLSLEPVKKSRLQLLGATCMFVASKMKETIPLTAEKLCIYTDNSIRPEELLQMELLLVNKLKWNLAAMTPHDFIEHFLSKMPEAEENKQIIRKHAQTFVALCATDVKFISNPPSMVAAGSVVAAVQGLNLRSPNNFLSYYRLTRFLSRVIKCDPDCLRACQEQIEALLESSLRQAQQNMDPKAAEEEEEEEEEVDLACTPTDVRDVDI
Sequence of Cyclin-dependent kinase 1/cyclin B1 (P06493 whole entry): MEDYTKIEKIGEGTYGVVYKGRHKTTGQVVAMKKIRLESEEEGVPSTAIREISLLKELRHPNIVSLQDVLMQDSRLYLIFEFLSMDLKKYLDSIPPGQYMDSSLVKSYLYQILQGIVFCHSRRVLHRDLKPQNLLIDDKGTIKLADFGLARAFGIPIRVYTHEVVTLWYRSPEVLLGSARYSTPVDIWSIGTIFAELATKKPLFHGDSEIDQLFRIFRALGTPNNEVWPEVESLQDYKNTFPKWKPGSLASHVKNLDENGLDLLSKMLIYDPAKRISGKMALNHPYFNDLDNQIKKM
Sequence of Cyclin-dependent kinase 1/cyclin B1 (P14635 whole entry, further chain): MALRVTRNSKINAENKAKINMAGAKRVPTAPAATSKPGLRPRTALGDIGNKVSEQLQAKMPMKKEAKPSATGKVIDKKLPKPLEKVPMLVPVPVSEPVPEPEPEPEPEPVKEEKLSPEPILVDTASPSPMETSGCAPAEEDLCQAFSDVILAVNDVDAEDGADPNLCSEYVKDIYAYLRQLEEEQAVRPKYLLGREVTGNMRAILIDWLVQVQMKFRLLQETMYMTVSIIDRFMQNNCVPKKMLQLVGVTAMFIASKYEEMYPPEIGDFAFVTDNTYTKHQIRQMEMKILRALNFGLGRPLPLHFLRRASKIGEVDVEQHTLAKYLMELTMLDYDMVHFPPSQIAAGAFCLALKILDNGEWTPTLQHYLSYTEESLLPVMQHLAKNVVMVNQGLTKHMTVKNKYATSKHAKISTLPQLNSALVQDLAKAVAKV
Sequence of CDK9/cyclin T1 (O60563 whole entry): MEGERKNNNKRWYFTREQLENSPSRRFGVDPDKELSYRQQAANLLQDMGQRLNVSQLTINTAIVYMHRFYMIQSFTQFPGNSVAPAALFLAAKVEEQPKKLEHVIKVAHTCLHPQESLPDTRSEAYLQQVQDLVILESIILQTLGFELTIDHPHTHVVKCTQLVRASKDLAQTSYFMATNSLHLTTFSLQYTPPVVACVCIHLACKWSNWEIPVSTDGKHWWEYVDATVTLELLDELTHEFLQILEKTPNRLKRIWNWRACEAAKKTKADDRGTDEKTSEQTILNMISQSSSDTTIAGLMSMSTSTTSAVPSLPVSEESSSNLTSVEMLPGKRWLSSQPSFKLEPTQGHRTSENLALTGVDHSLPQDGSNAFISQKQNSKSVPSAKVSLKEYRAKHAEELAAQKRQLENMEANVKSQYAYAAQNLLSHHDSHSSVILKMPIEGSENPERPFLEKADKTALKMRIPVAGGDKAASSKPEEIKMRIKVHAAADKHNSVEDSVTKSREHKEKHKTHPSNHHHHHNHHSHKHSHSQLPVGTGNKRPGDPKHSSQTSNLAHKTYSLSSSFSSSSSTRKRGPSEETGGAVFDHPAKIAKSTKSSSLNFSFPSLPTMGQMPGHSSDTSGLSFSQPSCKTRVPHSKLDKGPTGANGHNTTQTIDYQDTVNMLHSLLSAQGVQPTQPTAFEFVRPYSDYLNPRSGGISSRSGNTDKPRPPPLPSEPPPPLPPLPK
Sequence of CDK9/cyclin T1 (P50750 whole entry): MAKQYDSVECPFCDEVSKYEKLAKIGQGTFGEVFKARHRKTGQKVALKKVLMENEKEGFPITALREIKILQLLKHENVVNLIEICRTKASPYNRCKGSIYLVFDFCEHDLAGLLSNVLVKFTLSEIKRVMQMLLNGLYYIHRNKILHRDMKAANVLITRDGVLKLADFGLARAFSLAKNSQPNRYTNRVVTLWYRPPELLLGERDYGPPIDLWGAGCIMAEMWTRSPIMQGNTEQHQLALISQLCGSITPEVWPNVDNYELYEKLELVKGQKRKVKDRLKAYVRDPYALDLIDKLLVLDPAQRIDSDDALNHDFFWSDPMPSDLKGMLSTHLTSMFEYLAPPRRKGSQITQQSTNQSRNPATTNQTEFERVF
Sequence of Maternal embryonic leucine zipper kinase (Homo sapiens) (Q14680 whole entry, looked up): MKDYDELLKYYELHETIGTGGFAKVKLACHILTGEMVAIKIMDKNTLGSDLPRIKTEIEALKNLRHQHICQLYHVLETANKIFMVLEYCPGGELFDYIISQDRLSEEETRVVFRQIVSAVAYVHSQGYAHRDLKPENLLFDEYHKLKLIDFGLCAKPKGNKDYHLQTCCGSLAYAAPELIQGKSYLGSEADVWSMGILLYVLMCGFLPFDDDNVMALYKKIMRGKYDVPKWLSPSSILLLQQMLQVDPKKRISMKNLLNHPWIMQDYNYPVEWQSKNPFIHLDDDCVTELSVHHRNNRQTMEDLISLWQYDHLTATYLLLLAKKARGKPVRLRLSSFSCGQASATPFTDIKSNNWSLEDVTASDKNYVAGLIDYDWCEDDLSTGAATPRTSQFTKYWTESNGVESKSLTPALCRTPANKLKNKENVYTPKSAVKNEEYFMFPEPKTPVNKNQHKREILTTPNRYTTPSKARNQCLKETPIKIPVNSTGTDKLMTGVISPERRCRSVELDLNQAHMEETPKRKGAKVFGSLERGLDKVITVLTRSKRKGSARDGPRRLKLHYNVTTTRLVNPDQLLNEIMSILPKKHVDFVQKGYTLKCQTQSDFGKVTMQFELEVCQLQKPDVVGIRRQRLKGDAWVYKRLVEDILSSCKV
Sequence of Ribosomal protein S6 kinase beta-1 (Homo sapiens) (P23443 whole entry, looked up): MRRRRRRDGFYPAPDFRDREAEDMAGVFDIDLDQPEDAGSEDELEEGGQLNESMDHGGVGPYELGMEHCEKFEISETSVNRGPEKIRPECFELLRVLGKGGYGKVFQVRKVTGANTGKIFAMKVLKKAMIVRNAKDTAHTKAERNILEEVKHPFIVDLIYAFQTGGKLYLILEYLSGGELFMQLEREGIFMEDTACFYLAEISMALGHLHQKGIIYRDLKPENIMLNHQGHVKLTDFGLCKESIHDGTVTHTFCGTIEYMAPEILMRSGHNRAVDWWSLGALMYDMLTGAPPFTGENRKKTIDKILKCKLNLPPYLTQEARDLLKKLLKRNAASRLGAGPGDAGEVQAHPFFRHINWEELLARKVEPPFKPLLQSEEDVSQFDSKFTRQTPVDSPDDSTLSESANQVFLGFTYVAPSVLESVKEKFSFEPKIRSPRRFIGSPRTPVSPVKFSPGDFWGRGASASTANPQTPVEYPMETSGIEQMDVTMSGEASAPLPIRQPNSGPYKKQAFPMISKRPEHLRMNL
Sequence of cGMP-dependent protein kinase 1 (Homo sapiens) (Q13976 whole entry): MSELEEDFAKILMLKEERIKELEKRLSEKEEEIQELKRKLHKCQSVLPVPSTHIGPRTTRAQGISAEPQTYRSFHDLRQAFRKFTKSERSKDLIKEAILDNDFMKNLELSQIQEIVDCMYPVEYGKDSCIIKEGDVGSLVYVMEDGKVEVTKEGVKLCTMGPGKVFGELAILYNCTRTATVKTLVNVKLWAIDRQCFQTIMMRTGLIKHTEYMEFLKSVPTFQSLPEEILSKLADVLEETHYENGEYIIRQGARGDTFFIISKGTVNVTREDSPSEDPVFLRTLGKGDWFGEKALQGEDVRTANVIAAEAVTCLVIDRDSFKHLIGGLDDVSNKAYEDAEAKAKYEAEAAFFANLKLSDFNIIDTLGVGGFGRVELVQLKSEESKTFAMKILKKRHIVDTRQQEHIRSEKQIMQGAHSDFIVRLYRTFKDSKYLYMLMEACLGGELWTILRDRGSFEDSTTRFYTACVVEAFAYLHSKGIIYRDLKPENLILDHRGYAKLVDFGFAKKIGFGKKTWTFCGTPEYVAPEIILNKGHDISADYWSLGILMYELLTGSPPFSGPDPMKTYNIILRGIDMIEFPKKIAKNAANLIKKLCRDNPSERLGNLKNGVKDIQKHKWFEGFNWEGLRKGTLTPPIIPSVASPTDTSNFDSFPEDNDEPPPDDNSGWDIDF
Sequence of Dual specificity tyrosine-phosphorylation-regulated kinase 1B (Homo sapiens) (Q9Y463 whole entry, looked up): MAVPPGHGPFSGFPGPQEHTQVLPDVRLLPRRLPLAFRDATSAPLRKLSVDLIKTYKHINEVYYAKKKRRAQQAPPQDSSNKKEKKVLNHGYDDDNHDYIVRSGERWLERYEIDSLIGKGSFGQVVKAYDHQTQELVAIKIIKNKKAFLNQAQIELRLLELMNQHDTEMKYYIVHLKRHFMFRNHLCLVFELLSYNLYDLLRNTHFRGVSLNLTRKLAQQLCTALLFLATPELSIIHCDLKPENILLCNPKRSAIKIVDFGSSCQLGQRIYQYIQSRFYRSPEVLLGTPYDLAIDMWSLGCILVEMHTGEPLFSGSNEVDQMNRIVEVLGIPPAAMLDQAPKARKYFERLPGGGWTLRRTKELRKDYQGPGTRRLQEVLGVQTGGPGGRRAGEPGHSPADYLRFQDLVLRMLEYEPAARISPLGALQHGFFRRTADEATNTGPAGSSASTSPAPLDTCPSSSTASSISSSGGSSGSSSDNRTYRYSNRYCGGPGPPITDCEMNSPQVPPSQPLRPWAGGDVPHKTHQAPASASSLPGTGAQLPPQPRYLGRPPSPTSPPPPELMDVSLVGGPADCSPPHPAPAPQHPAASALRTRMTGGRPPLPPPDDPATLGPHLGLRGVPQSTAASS

| Compound | IC50 (CDK2/Cyclin A1) [nM] | IC50 [1] [nM] | IC50 [2] [nM] | IC50 [3] [nM] | IC50 (CDK2/Cyclin A2) [nM] | IC50 [4] [nM] | IC50 (CDK9/cyclin T1) [nM] | IC50 [5] [nM] | IC50 (MOLM-13) [nM] | IC50 (MOLM-14 [6]) [nM] | IC50 (MOLM-14 [7]) [nM] | IC50 (MOLM-14 [8]) [nM] | IC50 (SEM cells) [nM] | IC50 (CCRF-CEM) [nM] | IC50 (THP-1) [nM] | IC50 (U-937) [nM] | IC50 (BaF3 [9]) [nM] | IC50 (BaF3 [10]) [nM] | IC50 (K562) [nM] | IC50 (MV4-11 [19]) [nM] | further results |
| --- | --- | --- | --- | --- | --- | --- | --- | --- | --- | --- | --- | --- | --- | --- | --- | --- | --- | --- | --- | --- | --- |
| Cc1n[nH]c2cc(F)c3nc(-c4c[nH]nc4C(F)(F)F)c4c(c3c12)CCCC4 | 158 | 1 | 140 | 182 | 158 | > 1000 | > 1000 | 7 | 7 | 14 | 7 | 48 | 111 | 5730 | 2850 | 2580 | 5980 | 16 | 9200 | 20 | inhibition [11]: Active; inhibition [12]: Active; inhibition [13]: inactive; Activity (MV4-11 [14]): Active; Activity (MV4-11 [15]): Active; Activity (MV4-11 [16]): Active; Activity (MV4-11 [17]): Active; Activity (MV4-11 [18]): Active |
| Fc1cc2[nH]ncc2c2c3c(c(-c4c[nH]nc4C(F)(F)F)nc12)C1CCC3C1 (stereo not drawn) | 49 | 16 | 72 | 31 | 49 | > 1000 | 980 | 28 | 6 | 24 | 13 | 65 | 150 | 8120 | 3150 | 2240 | 5820 | 35 | 7590 | 49 | inhibition [11]: Active; inhibition [12]: Active; inhibition [13]: inactive; Activity (MV4-11 [14]): Active; Activity (MV4-11 [15]): Active; Activity (MV4-11 [16]): Active; Activity (MV4-11 [17]): Active; Activity (MV4-11 [18]): Active |
| FC(F)(F)c1n[nH]cc1-c1nc2ccc3[nH]ncc3c2c2c1CCCC2 | 39 |  |  |  |  |  |  |  |  |  |  |  |  |  |  |  |  |  | 8590 | 71 | Activity [20]: < 2.5%; Activity [21]: < 2.5%; Activity [22]: 4%; Activity [23]: 4%; Activity [24]: 4%; Activity [25]: 4%; Activity [26]: 4%; Activity [27]: < 25%; Activity [28]: < 25%; Activity [29]: < 25%; Activity [30]: < 25%; Activity [31]: < 25%; Activity [32]: < 25%; Activity [33]: < 25% |
